{"source": "patent US12435380B2", "about": "“Compositions and methods for the diagnosis and treatment of ALT cancer” (Texas Tech University System, priority 2018, dated 2025)", "key": {"p21 and NOXA": {"system": "p21 and NOXA", "experiment": "Immunoblots of apoptotic proteins after PRIMA-1MET", "format": "cell-based, human", "conditions": "TP53-mutated, 20 uM, 6, 12 and 24 hours", "protocol": "FIGS. 5A and 5B are quantitative representations of immunoblots of apoptotic proteins with three ALT+ cell lines and two TERT+ lines. All cell lines were treated with 20 uM of PRIMA-1MET for 6, 12 and 24 hours. All cell lines were known to have TP53-inactivating mutations. […] We hypothesize this is due to the constitutive activation of ATM in ALT positive cell lines, which will trigger senescence and apoptosis once PRIMA-1MET refolds mutant TP53."}, "[1]": {"system": "ALT+ neuroblastoma cell lines", "experiment": "DIMSCAN cytotoxicity, neuroblastoma cell lines", "format": "cell-based, human", "protocol": "FIG. 6 is a graph of survival fraction versus PRIMA-1MET concentration and illustrates high cytotoxicity of PRIMA-1MET in ALT+ versus TERT+(ALT negative) NB cell lines. FIG. 6 illustrates NB 5% O2. PRIMA-1MET dose response curves were analyzed using the DIMSCAN cytotoxicity assay system in 4 ALT+ neuroblastoma cell lines compared to 3 non-ALT, but TP53-mut cell lines.\nFIGS. 7A and 7B are graphs of survival fraction versus PRIMA-1MET concentration and illustrate cytotoxicity of PRIMA-1MET in ALT+NB cell lines as enhanced by hypoxia. PRIMA-1MET cytotoxicity was assessed for 3 ALT neuroblastoma cell lines in ambient air culture conditions (20% O2) compared with bone marrow level hypoxia (5% O2)."}, "[2]": {"system": "ALT rhabdomyosarcoma cell lines", "experiment": "DIMSCAN cytotoxicity, rhabdomyosarcoma cell lines", "format": "cell-based, human", "conditions": "5% O2", "protocol": "FIGS. 8A and 8B are graphs of survival fraction versus PRIMA-1MET concentration and illustrate Cytotoxicity of PRIMA-1MET in ALT vs TERT+ Rhabdomyosarcoma. FIG. 8A illustrates ALT+ rhabdomyosarcoma grown in 5% O2 and FIG. 8B illustrates TERT+ rhabdomyosarcoma grown in 5% O2. Cytotoxicity of PRIMA-1MET was assessed for ALT and non-ALT (TERT+) rhabdomyosarcoma cell lines using DIMSCAN."}, "[3]": {"system": "ALT lymphoma cell lines TX-LY-064hnb, TX-LY-245h, COG-LY-357h", "experiment": "DIMSCAN cytotoxicity, lymphoma cell lines", "format": "cell-based, human", "conditions": "vs TERT+ lines SUP-TI and COG-LY-459, 5% O2, p53 dysfunction", "text": "FIGS. 9A and 9B are graphs of survival fraction versus PRIMA-1MET concentration for ALT+p53 non-functional lymphoma 5% O2 and TERT+p53 non-functional lymphoma 5% O2, respectively. […] All lines had some form of p53 dysfunction."}, "[4]": {"system": "ALT+ p53 non-functional adult cell lines", "experiment": "Cytotoxicity, ALT+ adult cell lines", "format": "cell-based, human", "conditions": "5% O2", "text": "FIG. 10 is a graph of survival fraction versus PRIMA-1MET concentration for ALT+ adult cell lines showing the high activity of PRIMA1MET against ALT breast cancer, colorectal cancer, ovarian cancer, lung cancer, and leiomyosarcoma cell lines;\nFIG. 10 is a graph of survival fraction versus PRIMA-1MET concentration for ALT+p53 non-functional adult cell lines 5% O2. All lines had some form of p53 dysfunction."}, "[5]": {"system": "ALT cell lines from various histologies", "experiment": "Summary of cytotoxicity (IC50/IC90), ALT vs non-ALT cell lines of all histologies", "format": "cell-based, human", "text": "[…] are graphs of PRIMA-1MET cytotoxicity of ALT vs non-ALT cell lines and illustrate PRIMA-1MET IC50/IC90 for all tested cancers. FIG. 8A illustrates IC50 20% O2, and FIG. 8B illustrates IC90 20% O2. IC50 5% O2, and IC90 5% O2 were also observed. Cytotoxicity data on all ALT cell lines from various histologies were compared with non-ALT cell lines of the same histologies, presented as inhibitory+cytotoxic concentrations for 50% (IC50) and 90% (IC90) of the cells.\nFIGS. 11A and 11B are graphs showing cytotoxicity of ALT and non-ALT cell lines for IC50 and IC90. Cytotoxicity data on all ALT cell lines from various histologies compared with non-ALT cell lines of the same histologies. The data is presented as inhibitory+cytotoxic concentrations for 50% (IC50) and 90% (IC90) of the cells."}, "[6]": {"system": "ALT neuroblastoma cell line CHLA-90", "experiment": "PRIMA-1MET sensitivity after shRNA knockdown of ATM", "format": "cell-based, human", "text": "FIGS. 20A and 20B illustrate data for cell line CHLA-90. shRNA knockdown of ATM in the ALT neuroblastoma cell line CHLA-90 led to hyper-resistance to PRIMA-1MET. We hypothesize this is due to the loss of constitutive activation of ATM in ALT positive cell lines which would trigger senescence and apoptosis once PRIMA-1MET refolds mutant p53 in the presence of ATM."}, "ALT+ cell lines": {"system": "ALT+ cell lines", "experiment": "PRIMA-1MET IC50 with ATM or ATR kinase inhibitor, ALT+ lines", "format": "cell-based, human", "conditions": "with ATM kinase inhibitor (ATMi) or ATR kinase inhibitor (ATRi)", "text": "(§1) FIGS. 21A and 21B illustrate effect of inhibition of ATM or ATR kinase on sensitivity of ALT+vs TERT+(ALT-negative) using ATM kinase inhibitor (ATMi) or ATR kinase inhibitor (ATRi) ir ALT+ and TERT+ cell lines;\n(§2) FIGS. 21A and 21B illustrate inhibition of kinase inhibitors for ALT+ and TERT+ cell lines Kinase Inhibitors antagonize PRIMA-1MET in ALT+ cell lines."}, "TERT+ cell lines": {"system": "TERT+ cell lines", "experiment": "PRIMA-1MET IC50 with ATM or ATR kinase inhibitor, TERT+ lines", "format": "cell-based, human", "conditions": "with ATM kinase inhibitor (ATMi) or ATR kinase inhibitor (ATRi)", "text": "as §1, §2"}, "[7]": {"system": "ALT+ neuroblastoma xenografts CHLA-90m and COG-N-669x", "experiment": "ALT neuroblastoma xenografts, tumor volume", "set-up": "species or system athymic nude mice", "conditions": "mouse, in vivo", "protocol": "FIGS. 22A and 22B are graphs tumor volume versus time for CHLA-90m and COG-N-669x. The neuroblastoma cell lines CHLA-90m and COG-N-669x were injected into athymic nude mice and drugged with PRIMA-1Met and BSO."}, "[8]": {"conditions": "cited from earlier work"}, "[9]": {"system": "ALT neuroblastoma cell lines", "experiment": "PRIMA-1 activity in neuroblastoma cell lines, ALT vs non-ALT", "format": "cell-based, human", "conditions": "ALT vs TP53-mutated non-ALT neuroblastoma cell lines", "text": "Neuroblastoma provides a unique cancer for studying the role of changes that lead to inactivation of p53, such as TP53 inactivating mutations. This is because, unlike many other cancers, neuroblastomas at diagnosis and before therapy most frequently are p53 functional and there is a very low incidence of TP53 mutations. However, the incidence of p53 loss-of-function (often by TP53 mutation) increases in progressive disease after therapy. Because PRIMA-1 was developed as a drug that could restore p53 function to tumors with TP53 mutations, we assessed the activity of PRIMA-1 in neuroblastoma cell lines. Our panel of neuroblastoma cell lines includes p53-functional cell lines and those that have p53 loss-of-function and lines with TP53 mutations. The panel includes cell lines with TP53 mutations that are telomerase-positive (high TERT expression) and also TERT-low ALT (C-circle-positive) cell lines.\nWe have determined that the C-circle assay (specific for ALT cancers) identifies cancers that are especially responsive to PRIMA-1. While PRIMA-1 and APR-246 are being developed to treat TP53-mutated caners, only a subset of the latter respond to the drug as shown in preclinical studies and in the early phase I clinical trials. […]"}, "ALT cell lines": {"system": "ALT cell lines", "experiment": "PRIMA-1 activity in ALT cell lines from cancers other than neuroblastoma", "format": "cell-based, human", "conditions": "all ALT cell lines examined to date"}}, "note": "“Also recorded” adds a separate entry of the source."}
{"compound": "COCC1(CO)C(=O)C2CCN1CC2", "note": "(stereo not drawn) [PRIMA-1MET]", "values": [{"measurement": "NOXA expression", "setting": "p21 and NOXA; three ALT+ cell lines", "value": "NOXA expression during longer treatment"}, {"measurement": "p21 expression", "setting": "p21 and NOXA; three ALT+ cell lines", "value": "substantial increase"}, {"measurement": "NOXA expression", "setting": "p21 and NOXA; two non-ALT (TERT+) cell lines", "value": "very little increase"}, {"measurement": "p21 expression", "setting": "p21 and NOXA; two non-ALT (TERT+) cell lines", "value": "very little increase"}, {"measurement": "cytotoxicity in hypoxia vs ambient air", "setting": "[1]; 3 ALT neuroblastoma cell lines, 5% O2 compared with 20% O2", "value": "even great cytotoxicity"}, {"measurement": "sensitivity (survival fraction), ALT vs non-ALT neuroblastoma", "setting": "[1]; 4 ALT+ vs 3 non-ALT TP53-mut cell lines, 5% O2", "value": "significantly more sensitive"}, {"measurement": "sensitivity (survival fraction), ALT vs non-ALT rhabdomyosarcoma", "setting": "[2]", "value": "more sensitive"}, {"measurement": "sensitivity (survival fraction), ALT vs TERT+ lymphoma", "setting": "[3]", "value": "more sensitive"}, {"measurement": "activity against ALT breast, colorectal, ovarian, lung cancer and leiomyosarcoma cell lines", "setting": "[4]", "value": "high activity"}, {"measurement": "sensitivity by IC50 and IC90, ALT vs non-ALT cell lines", "setting": "[5]; all tested histologies", "value": "significantly more sensitive"}, {"measurement": "ALT vs non-ALT difference in IC50/IC90 in hypoxia", "setting": "[5]; bone marrow level hypoxia (5% O2) vs 20% O2", "value": "differences were greater"}, {"measurement": "response to PRIMA-1MET after ATM knockdown", "setting": "[6]", "value": "hyper-resistance"}, {"measurement": "change of IC50 with kinase inhibitors", "setting": "ALT+ cell lines", "value": "greatly increases"}, {"measurement": "change of IC50 with kinase inhibitors", "setting": "TERT+ cell lines", "value": "little effect"}, {"measurement": "tumor volume, single agent relative to control", "setting": "[7]", "value": "greater amount of activity"}, {"measurement": "plasma levels", "setting": "[8]; at the maximally tolerated dose, out to ~12 hours", "value": "> 10000", "unit": "ng/mL"}, {"measurement": "maximally tolerated dose", "setting": "[8]; phase I, hematological malignancies and hormone-refractory prostate cancer", "value": 60, "unit": "μg/m^2"}, {"measurement": "bone marrow toxicity", "setting": "[8]; phase I", "value": "not observed"}, {"measurement": "most common adverse events", "setting": "[8]; phase I", "value": "dizziness, headache, confusion, and other neurological complications"}]}
{"compound": "O=C1C2CCN(CC2)C1(CO)CO", "note": "[PRIMA-1]", "values": [{"measurement": "activity of PRIMA-1 in ALT vs non-ALT neuroblastoma", "setting": "[9]", "value": "significantly greater in ALT neuroblastoma cell lines; also recorded: significantly higher in ALT neuroblastoma"}, {"measurement": "sensitivity of ALT cell lines to PRIMA-1", "setting": "ALT cell lines", "value": "highly sensitive"}]}
